Source: US11464780B2, “Pyrazolopyrimidine derivative and use thereof” (Simcere Pharmaceutical Co. Ltd., priority 2018, dated 2022)
Structures can show the parent of a compound that is named as a salt.

Experiments:
[1] = test system: human lung cancer LU-01-0414 subcutaneous xenograft tumor; assay: In vivo efficacy, subcutaneous xenograft tumor of human lung cancer LU-01-0414; design: species or system BALB/c mouse; settings: LU-01-0414 xenograft, 14th day, PO
Experimental: Experimental object: evaluation of the in vivo efficacy of test drugs such as WX002A on subcutaneous xenograft tumor of human lung cancer LU-01-0414 in BALB/c mouse model.
Drug preparation: The compounds were all prepared into clear solutions with 5% DMSO+10% solutol+85% water as solvent for administration in the PO (intragastric) group.
Tumor measurement: the tumor diameters were measured with a vernier caliper twice a week. The calculation formula of tumor volume is: V=0.5×a×b^2, wherein a and b represent the long diameter and short diameter of the tumor, respectively. The anti-tumor efficacy of the compounds was evaluated by TGI (%). TGI (%) reflects tumor growth inhibition rate.
Statistical analysis: the statistical analysis was based on the relative tumor volume and tumor weight at the end of the experiment using SPSS software. One-way ANOVA was used to analyze the comparison between multiple groups. […] P<0.05 was considered to indicate significant difference.

[2] = In vivo pharmacokinetic test in mice; design: species or system male CD-1 mice; settings: PO dose of 10 mL/kg
Experimental: Experimental object: male CD-1 mice aged 7-9 weeks were used as the experimental animals, the LC/MS/MS method was used to determine the drug concentrations in plasma at different time points after single intravenous (IV) and intragastric (PO) administration of the compounds, in vivo pharmacokinetic behaviors of the compounds of the present disclosure in mice were studied, and pharmacokinetic characteristics thereof were evaluated. Drug preparation: The compounds were prepared into clear solutions with 5% DMSO+10% solutol+85% water as solvent for administration in IV (intravenous) group and PO (intragastric). The dose of the compounds: IV dose of 3 mg/kg, and PO dose of […].

[3] = In vivo cassette pharmacokinetic test in mice; design: species or system male CD-1 mice; settings: male, CD-1, mouse, in vivo, po, 3 mg/kg, 2 h
Experimental: The dose of the compounds: […] PO dose of 3 mg/kg, and administration volume of 3 mL/kg.

[4] = target: T1, TrkA (Homo sapiens, UniProt P04629); assay: Kinase inhibitory activity (33P-ATP filter binding, Reaction Biology Corp.); type: biochemical; settings: read-out: The half maximal inhibitory concentration IC50 on the kinases, TrkA
T1 construct: purchased Reaction Biology Corp. (contract assay)
T1 sequence (P04629 33-796): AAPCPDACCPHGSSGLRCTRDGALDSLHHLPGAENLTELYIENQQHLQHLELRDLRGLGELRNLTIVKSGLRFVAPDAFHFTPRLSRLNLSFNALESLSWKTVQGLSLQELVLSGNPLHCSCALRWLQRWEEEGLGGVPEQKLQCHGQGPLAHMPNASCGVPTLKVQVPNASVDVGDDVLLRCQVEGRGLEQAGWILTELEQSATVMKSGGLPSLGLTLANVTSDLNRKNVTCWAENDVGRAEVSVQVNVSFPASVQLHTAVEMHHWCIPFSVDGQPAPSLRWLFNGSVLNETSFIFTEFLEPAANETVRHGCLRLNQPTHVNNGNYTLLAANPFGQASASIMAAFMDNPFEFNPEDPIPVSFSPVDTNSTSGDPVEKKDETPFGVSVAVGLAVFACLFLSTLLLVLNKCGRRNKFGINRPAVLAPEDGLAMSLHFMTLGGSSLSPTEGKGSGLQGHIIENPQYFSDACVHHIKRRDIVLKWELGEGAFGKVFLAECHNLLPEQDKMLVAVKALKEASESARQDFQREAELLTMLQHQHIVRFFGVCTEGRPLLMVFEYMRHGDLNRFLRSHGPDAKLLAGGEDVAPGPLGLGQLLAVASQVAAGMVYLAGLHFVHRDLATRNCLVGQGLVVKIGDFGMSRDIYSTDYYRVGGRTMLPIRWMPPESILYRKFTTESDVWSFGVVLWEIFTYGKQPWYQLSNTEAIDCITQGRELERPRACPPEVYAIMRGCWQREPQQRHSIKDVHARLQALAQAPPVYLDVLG
Experimental: (§1) The mixture was incubated at room temperature for 20 minutes. To the reaction mixture was added a certain concentration of ^33P-ATP to initiate the reaction, and then the mixture was incubated at room temperature for 120 minutes. The radioactivities of the reactants were determined by the method of filter binding. The final kinase activity was expressed as the ratio of the remaining kinase activity in the test sample to the kinase activity in the DMSO control group. The dose-effect curve was fitted by GraphPad software and the IC50 was calculated.

[5] = target: T2, TrkC (Homo sapiens, UniProt Q16288); assay: as above; type: biochemical; settings: read-out: The half maximal inhibitory concentration IC50 on the kinases, TrkC
T2 construct: purchased Reaction Biology Corp. (contract assay)
T2 sequence (Q16288 32-839): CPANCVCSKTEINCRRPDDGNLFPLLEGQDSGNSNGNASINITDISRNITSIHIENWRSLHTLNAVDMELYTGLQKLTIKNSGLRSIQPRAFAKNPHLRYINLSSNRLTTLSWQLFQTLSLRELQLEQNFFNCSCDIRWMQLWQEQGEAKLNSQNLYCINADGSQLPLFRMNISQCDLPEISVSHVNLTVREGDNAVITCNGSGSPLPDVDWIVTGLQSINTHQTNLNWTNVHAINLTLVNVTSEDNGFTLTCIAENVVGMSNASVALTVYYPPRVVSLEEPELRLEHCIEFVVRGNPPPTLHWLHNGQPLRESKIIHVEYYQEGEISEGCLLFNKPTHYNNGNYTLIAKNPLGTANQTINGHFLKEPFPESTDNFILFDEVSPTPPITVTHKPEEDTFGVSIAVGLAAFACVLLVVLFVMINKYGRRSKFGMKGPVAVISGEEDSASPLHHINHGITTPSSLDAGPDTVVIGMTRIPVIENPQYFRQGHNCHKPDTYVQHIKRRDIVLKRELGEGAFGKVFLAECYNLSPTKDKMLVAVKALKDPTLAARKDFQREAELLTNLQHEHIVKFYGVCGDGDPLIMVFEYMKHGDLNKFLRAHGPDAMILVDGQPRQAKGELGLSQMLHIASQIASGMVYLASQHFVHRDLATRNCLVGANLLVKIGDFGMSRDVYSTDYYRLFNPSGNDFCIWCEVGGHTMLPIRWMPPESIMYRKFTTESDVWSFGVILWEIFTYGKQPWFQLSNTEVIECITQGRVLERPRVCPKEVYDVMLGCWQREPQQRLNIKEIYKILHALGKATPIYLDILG
Experimental: as §1

[6] = target: T3, Ros1 (Homo sapiens, UniProt P08922); assay: as above; type: biochemical; settings: read-out: The half maximal inhibitory concentration IC50 on the kinases, Ros1
T3 construct: purchased Reaction Biology Corp. (contract assay)
Experimental: as §1

[7] = target: T4, ALK (Homo sapiens, UniProt Q9UM73); assay: as above; type: biochemical; settings: read-out: The half maximal inhibitory concentration IC50 on the kinases, ALK
T4 construct: purchased Reaction Biology Corp. (contract assay)
T4 sequence (Q9UM73 19-1620): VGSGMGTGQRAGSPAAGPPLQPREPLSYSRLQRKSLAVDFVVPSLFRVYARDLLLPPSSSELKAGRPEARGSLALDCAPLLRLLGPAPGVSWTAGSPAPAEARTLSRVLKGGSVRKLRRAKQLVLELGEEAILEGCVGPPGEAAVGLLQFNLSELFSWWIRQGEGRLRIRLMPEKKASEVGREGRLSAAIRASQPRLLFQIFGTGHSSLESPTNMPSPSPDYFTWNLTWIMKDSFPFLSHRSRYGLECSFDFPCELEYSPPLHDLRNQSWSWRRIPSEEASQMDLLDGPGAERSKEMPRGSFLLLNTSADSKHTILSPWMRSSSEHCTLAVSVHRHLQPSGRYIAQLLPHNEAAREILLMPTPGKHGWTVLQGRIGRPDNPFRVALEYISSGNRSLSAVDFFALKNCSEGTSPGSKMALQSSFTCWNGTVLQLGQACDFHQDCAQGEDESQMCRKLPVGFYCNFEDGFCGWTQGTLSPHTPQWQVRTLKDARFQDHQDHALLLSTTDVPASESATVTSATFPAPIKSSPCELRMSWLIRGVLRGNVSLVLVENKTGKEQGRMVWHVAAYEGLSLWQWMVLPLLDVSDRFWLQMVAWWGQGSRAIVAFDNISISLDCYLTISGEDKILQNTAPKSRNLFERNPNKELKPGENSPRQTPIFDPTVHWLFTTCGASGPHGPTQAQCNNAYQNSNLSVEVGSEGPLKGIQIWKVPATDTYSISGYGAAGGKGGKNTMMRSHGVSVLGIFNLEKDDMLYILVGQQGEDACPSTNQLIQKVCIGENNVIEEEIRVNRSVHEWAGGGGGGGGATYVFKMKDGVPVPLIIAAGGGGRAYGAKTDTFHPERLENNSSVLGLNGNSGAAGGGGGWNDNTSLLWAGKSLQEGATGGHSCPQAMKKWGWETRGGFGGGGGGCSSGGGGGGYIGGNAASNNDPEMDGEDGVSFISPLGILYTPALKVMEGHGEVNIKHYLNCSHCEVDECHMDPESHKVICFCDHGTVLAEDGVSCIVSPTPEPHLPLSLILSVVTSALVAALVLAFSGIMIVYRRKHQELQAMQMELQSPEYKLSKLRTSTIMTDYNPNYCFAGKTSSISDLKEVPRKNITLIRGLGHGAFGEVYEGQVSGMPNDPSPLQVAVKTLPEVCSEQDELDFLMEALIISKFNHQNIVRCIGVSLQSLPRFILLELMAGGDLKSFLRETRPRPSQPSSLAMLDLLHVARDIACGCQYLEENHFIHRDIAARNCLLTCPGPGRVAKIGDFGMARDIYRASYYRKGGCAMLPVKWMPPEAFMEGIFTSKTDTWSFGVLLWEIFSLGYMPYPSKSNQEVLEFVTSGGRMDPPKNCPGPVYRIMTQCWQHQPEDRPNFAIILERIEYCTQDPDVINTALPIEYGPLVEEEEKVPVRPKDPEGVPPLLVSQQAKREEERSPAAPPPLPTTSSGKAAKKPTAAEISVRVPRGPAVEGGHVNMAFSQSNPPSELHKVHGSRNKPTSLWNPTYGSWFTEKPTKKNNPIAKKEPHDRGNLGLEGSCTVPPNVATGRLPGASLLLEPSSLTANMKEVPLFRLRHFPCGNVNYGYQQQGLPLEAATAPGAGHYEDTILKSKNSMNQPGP
Experimental: The inhibitory activities of the compounds on TrkA, TrkC, ALK, Ros1 and other kinases were determined by Reaction Biology Corp. To reaction buffer (20 mM Hepes (pH 7.5), 10 mM MgCl2, 1 mM EGTA, 0.02% Brij35, 0.02 mg/mL BSA, 0.1 mM Na3VO4, 2 mM DTT, 1% DMSO) were sequentially added a certain concentration of substrate, coenzyme factor, kinase and test compound (10 concentrations, 3-fold serial dilutions, DMSO at a final concentration of […]), and the mixture was mixed evenly. The mixture was incubated at room temperature for 20 minutes. To the reaction mixture was added a certain concentration of ^33P-ATP to initiate the reaction, and then the mixture was incubated at room temperature for 120 minutes. The radioactivities of the reactants were determined by the method of filter binding. The final kinase activity was expressed as the ratio of the remaining kinase activity in the test sample to the kinase activity in the DMSO control group. The dose-effect curve was fitted by GraphPad software and the IC50 was calculated.

[8] = target: T5, TrkA-G595R (Homo sapiens, UniProt P04629, G595R); assay: as above; type: biochemical; settings: read-out: The half maximal inhibitory concentration IC50 on the kinases, TrkA-G595R
T5 construct: purchased Reaction Biology Corp. (contract assay)
T5 sequence (P04629 33-796 G595R): as the sequence (P04629 33-796) above, with G563R counted along it
Experimental: as §1

[9] = target: T6, Ba/F3 LMNA-NTRK1-WT stably transfected cell line (Homo sapiens, UniProt P04629); assay: Cell proliferation inhibition (CellTiter-Glo); type: cell-based; settings: 72 hours, read-out: The half maximal inhibitory concentration IC50 against cells, Ba/F3 LMNA-NTRK1-WT
T6 construct: fused on or other part: P02545 (Prelamin-A/C)
T6 sequence (P04629 whole entry, stated change not applied, the tested form may be a part): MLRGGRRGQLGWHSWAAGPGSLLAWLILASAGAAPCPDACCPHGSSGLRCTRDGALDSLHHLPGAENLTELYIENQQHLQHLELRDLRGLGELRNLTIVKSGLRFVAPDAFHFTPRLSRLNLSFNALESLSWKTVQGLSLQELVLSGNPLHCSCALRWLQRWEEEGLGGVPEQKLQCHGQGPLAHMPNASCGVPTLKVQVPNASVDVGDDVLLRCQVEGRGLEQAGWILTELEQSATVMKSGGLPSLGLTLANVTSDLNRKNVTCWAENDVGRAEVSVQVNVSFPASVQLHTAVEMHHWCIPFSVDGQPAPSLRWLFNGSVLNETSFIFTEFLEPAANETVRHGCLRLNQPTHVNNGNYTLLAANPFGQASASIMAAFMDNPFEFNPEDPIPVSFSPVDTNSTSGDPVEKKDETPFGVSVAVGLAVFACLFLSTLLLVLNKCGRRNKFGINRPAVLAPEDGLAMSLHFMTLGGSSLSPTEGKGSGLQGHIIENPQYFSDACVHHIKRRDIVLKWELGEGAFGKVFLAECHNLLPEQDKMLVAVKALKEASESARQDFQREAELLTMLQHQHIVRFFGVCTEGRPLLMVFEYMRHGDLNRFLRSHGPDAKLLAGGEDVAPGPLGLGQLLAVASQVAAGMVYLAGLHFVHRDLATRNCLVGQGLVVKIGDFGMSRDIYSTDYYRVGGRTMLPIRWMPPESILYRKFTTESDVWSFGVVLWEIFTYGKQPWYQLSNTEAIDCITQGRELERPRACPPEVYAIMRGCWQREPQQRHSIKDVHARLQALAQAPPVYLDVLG
Experimental: Adenosine Tri-Phosphate (ATP) is an energy carrier shared by various life activities in nature, and is the smallest unit of energy storage and transfer. The CellTiter-Glo™ cell viability detection kit uses luciferase as the detection substance, and luciferase requires the participation of ATP during the process of luminescence. CellTiter-Glo™ reagent is added to cell culture medium, and the luminescent intensity is measured. The luminescent signal is directly proportional to the amount of ATP in the system, and ATP is positively related to the number of living cells. Therefore, by using the CellTiter-Glo kit to detect ATP content, cell proliferation can be detected. In this assay, the cell line is Ba/F3 LMNA-NTRK1-WT stably transfected cell line, with 5000 cells/well.
IC50 Determination Process:
1. Cell Culture and Inoculation
a) the cells in the logarithmic growth phase were harvested, and counted with a platelet counter. Trypan blue exclusion method was used to detect cell viability to ensure the cell viability was no less than 90%.
b) the cell concentration was adjusted; 90 μL of cell suspension was added respectively into a 96-well plate.
c) the cells in the 96-well plates was cultured under conditions of 37° C., 5% CO2 and 95% humidity overnight.
2. Drug Dilution and Administration
a) 10-fold drug solutions were prepared, the highest concentration was 10 μM, 9 concentrations, 3-fold diluted (refer to Appendix I). 10 μL of each drug solution was added to each well of the 96-well plate seeded with the cells in triplicate.
b) the cells in the 96-well plate added with the drug were cultured under conditions of 37° C., 5% CO2 and 95% humidity for 72 hours, and then CTG (cell proliferation) was performed.
a) CellTiter-Glo™ reagent was thawed, and the cell plate was equilibrated at room temperature for 30 minutes.
b) CellTiter-Glo™ reagent of a same volume was added to each well;
c) the cell plate was shaken on an orbital shaker for 5 minutes to lyse the cells.
d) the cell plate was placed at room temperature for 20 minutes to stabilize the luminescent signal.
e) the luminescent intensity was read.
GraphPad Prism 5.0 software was used to analyze the data, nonlinear S-curve regression was used to fit the data to obtain dose-effect curve, and IC50 value was calculated therefrom.

Row | IC50 [4] | SMILES | further results
1 |  | C[C@@H](Oc1cc(-c2cnn(C3CCNCC3)c2)cnc1N)c1c(Cl)ccc(F)c1Cl [Crizotinib, crizotinib, reference compound] | T/C ([1]; 30 mg/kg QD): 10.32%; TGI ([1]; 30 mg/kg QD): 117.67%; T/C ([1]; 50 mg/kg QD): 4.89%; TGI ([1]; 50 mg/kg QD): 124.09%
2 |  | C[C@@H]1CCc2ncc(F)cc2[C@H]2CCCN2c2ccn3ncc(c3n2)C(=O)N1 [LOXO-195, reference compound] | Area under the curve AUC0-last [2]: 27.344 µM·h; Time of peak concentration Tmax [2]: 22.8 min; Cmax ([2]; read-out: Peak concentration Cmax): 12.7 µM
3 |  | CN1CCN(c2ccc(C(=O)Nc3n[nH]c4ccc(Cc5cc(F)cc(F)c5)cc34)c(NC3CCOCC3)c2)CC1 [RXDX-101, Entrectinib, reference compound] | drug concentration in brain at 2 h Brain@2 h [3]: 30 nmol/kg
4 | 177 nM | CC1CCc2ncc(F)cc2C2CCON2c2ccn3ncc(c3n2)C(=O)N1 (stereo not drawn) [WX001 hydrochloride] | 
5 | > 1000 nM | O=C1NC2(CC2)COc2ncc(F)cc2[C@@H]2CCON2c2ccn3ncc1c3n2 [WX002B] | 
6 | 4.37 nM | O=C1NC2(CC2)COc2ncc(F)cc2C2CCON2c2ccn3ncc1c3n2 (stereo not drawn) [WX002] | 
7 | > 1000 nM | O=C1NC2(CC2)COc2ccc(F)cc2[C@@H]2CCON2c2ccn3ncc1c3n2 [WX003B] | 
8 | > 1000 nM | C[C@@H]1COc2ncc(F)cc2[C@@H]2CCON2c2ccn3ncc(c3n2)C(=O)N1 [WX004B] | IC50 [5]: 105 nM
9 | > 1000 nM | C[C@H]1CNC(=O)c2cnn3ccc(nc23)N2OCC[C@H]2c2cc(F)cnc2O1 [WX005A] | IC50 [6]: 531 nM; IC50 [5]: 189 nM; IC50 [7]: > 1000 nM
10 | > 1000 nM | O=C1NC2(COC2)COc2ncc(F)cc2[C@@H]2CCON2c2ccn3ncc1c3n2 [WX006B] | IC50 [8]: > 1000 nM
11 | 585 nM | O=C1N[C@@H]2CCC[C@@H]2Oc2ncc(F)cc2[C@@H]2CCON2c2ccn3ncc1c3n2 [WX007B] | IC50 [8]: > 1000 nM
12 | > 1000 nM | O=C1N[C@@H]2COC[C@@H]2Oc2ncc(F)cc2[C@@H]2CCON2c2ccn3ncc1c3n2 [WX008B] | IC50 [8]: > 1000 nM
13 | 85.1 nM | CN1C[C@@H]2Oc3ncc(F)cc3[C@H]3CCON3c3ccn4ncc(c4n3)C(=O)N[C@@H]2C1 [WX009A] | GI50 [9]: 76.8 nM
14 | > 1000 nM | CN1C[C@@H]2Oc3ncc(F)cc3[C@@H]3CCON3c3ccn4ncc(c4n3)C(=O)N[C@@H]2C1 [WX009B] | 
15 | > 1000 nM | O=C1N[C@@H]2COCC[C@@H]2Oc2ncc(F)cc2[C@@H]2CCON2c2ccn3ncc1c3n2 [WX010A] | 
16 | 33.6 nM | CN1CC[C@H]2NC(=O)c3cnn4ccc(nc34)N3OCC[C@@H]3c3cc(F)cnc3O[C@H]2C1 [WX011A] | GI50 [9]: 39.7 nM
17 | 270 nM | CN1CC[C@H]2NC(=O)c3cnn4ccc(nc34)N3OCC[C@H]3c3cc(F)cnc3O[C@H]2C1 [WX011B] | 
18 | > 1000 nM | O=C1N[C@@H]2CNC[C@@H]2Oc2ncc(F)cc2[C@@H]2CCON2c2ccn3ncc1c3n2 [WX012A] | 
19 | 143 nM | O=C1N[C@@H]2CNC[C@@H]2Oc2ncc(F)cc2[C@H]2CCON2c2ccn3ncc1c3n2 [WX012B] | GI50 [9]: 259 nM
20 | > 1000 nM | O=C1N[C@@H]2CCNC[C@@H]2Oc2ncc(F)cc2[C@@H]2CCON2c2ccn3ncc1c3n2 [WX013A] | 
21 | 57.2 nM | O=C1N[C@@H]2CCNC[C@@H]2Oc2ncc(F)cc2[C@H]2CCON2c2ccn3ncc1c3n2 [WX013B] | GI50 [9]: 216 nM
22 | 1230 nM | CC(=O)N1CC[C@H]2NC(=O)c3cnn4ccc(nc34)N3OCC[C@H]3c3cc(F)cnc3O[C@H]2C1 [WX014A] | 
23 | 12.8 nM | CC(=O)N1CC[C@H]2NC(=O)c3cnn4ccc(nc34)N3OCC[C@@H]3c3cc(F)cnc3O[C@H]2C1 [WX014B] | GI50 [9]: 80.4 nM
24 | 182 nM | CCN1C[C@@H]2Oc3ncc(F)cc3[C@H]3CCON3c3ccn4ncc(c4n3)C(=O)N[C@@H]2C1 [WX015A] | GI50 [9]: 65.1 nM
25 | > 1000 nM | CCN1C[C@@H]2Oc3ncc(F)cc3[C@@H]3CCON3c3ccn4ncc(c4n3)C(=O)N[C@@H]2C1 [WX015B] | 
26 | 33 nM | CCN1CC[C@H]2NC(=O)c3cnn4ccc(nc34)N3OCC[C@@H]3c3cc(F)cnc3O[C@H]2C1 [WX016A] | GI50 [9]: 65.8 nM
27 | 220 nM | CCN1CC[C@H]2NC(=O)c3cnn4ccc(nc34)N3OCC[C@H]3c3cc(F)cnc3O[C@H]2C1 [WX016B] | 
28 | > 1000 nM | C[C@@H]1COc2ccc(F)cc2[C@@H]2CCON2c2ccn3ncc(c3n2)C(=O)N1 [WX017B] | 
29 | > 1000 nM | CC1(C)COc2ncc(F)cc2[C@H]2CCON2c2ccn3ncc(c3n2)C(=O)N1 [WX018] | 
